# According to patent publication US9265268B2, “Method of handling bananas” (priority 2009, dated 2016):
# How the values were obtained:
# Format in all cases: in vivo, Musa
# bananas [1] = assay: Example 2C: evaluation process C (22° C. after MCP); crown mold and crown rot; conditions: 7 days in bag at approx. 22° C., rating 0-3
# Text: Bananas may be inspected for the incidence of crown mold. Crown mold is observed and given a numerical rating as follows: 0 (apparently healthy and disease-free fruit); 1 (mycelia not easily detectable with naked eye, but obvious slight disease is visible on the crown); 2 (presence of some visible mycelia on the crown and moderate disease damage on the crown; 3 (clearly visible mycelia on the crown with severe disease damage on the crown).
# Bananas may be inspected for the incidence of crown rot. When disease damage is apparent but no fungus is visible, crown rot is reported, with the degree of damage assessed as follows: 0 (apparently healthy and disease-free fruit); 1 (obvious slight disease is visible on the crown); 2 (moderate disease damage on the crown; 3 (severe disease damage on the crown).
# (§1) Bananas were harvested at 13 weeks of age. Fruit bunches were separated into hands, then washed, and excess latex was removed in chlorinated water tanks using standard commercial practices. The washed hands of bananas were further broken into clusters and treated with fungicide. Clusters were placed into plastic bags; each bag held approximately 1.4 kg (3 lbs) of bananas. The bananas remained in these bags until they were removed for evaluation (see below).
# (§2) At day 5 at approximately 4 pm, the bananas had reached color stage 2.5 to 3.5. Treatment groups PE-3-C, PE-10-C, MAP-3, and MAP-10 were then exposed to 1-MCP overnight at the concentrations shown above.
# Some of the bananas from each group described in Example 2 were evaluated by process “C” as follows: After treatment groups PE-3-C, PE-10-C, MAP-3, and MAP-10 received exposure to 1-MCP, the bananas remained in their bags and were held at approximately 22° C. The bananas were inspected daily while they remained in the bags.
# After 7 days at approximately 22° C., results were as follows: […]
# bananas [2] = assay: Example 2X: evaluation process X (extended storage at 14° C.); conditions: non-zero 1-MCP
# Text: as §1, §2
# Some of the bananas from each group described in Example 2 were evaluated by process “X” as follows: After treatment groups PE-3-C, PE-10-C, MAP-3, and MAP-10 received exposure to 1-MCP, the bananas remained in their bags and were held at approximately 14° C. The bananas were inspected daily while they remained in the bags.
# bananas [3] = assay: Example US-4: placement into MAP after exposure to 1-MCP; conditions: 1000 ppb, Day #8
# Text: Bananas were harvested and shipped to Ephrata, Pa. as in Example US-1 above. The bananas were also ripened as in Example US-1, except that the bananas remained in the bags in which they were shipped (poly liners) throughout the ripening process. Some of the poly liners were exposed to 1-MCP (1000 ppb) as in Example US-1 above, while others were not. Immediately after the conclusion of the exposure to 1-MCP, bananas were removed from the poly liners, divided into bunches. Some bunches had approximately of 1.4 kg (3 lb) and were placed into T-bags as described above. Other bunches were approximately 18 kg (40 lb) and were placed into MAP type D-40 as described above, using standard layering technique that interposes layers of the bag in between layers of bananas. Then the bananas were stored and evaluated as in Example US-1. Also, the bananas were eaten, and the firmness of the pulp was evaluated along with the overall quality of the eating experience.
# bananas [4] = assay: Example US-7a: various number of bananas per bag (appearance); set-up: scale not given here; conditions: 1,000 ppb 1-MCP, Day Number 7
# Procedure: Bananas were handled and tested as in Example US-1, except that the number of bananas per bag was varied. Concentration of 1-MCP was 1,000 ppb. Also, two different types of MAP bags were used: type M and type D, as described above. Bananas were evaluated on day #7 after treatment with 1-MCP.
# [5] = MAP-10: MAP bag, 1000 ppb 1-MCP
# [6] = PE-10-C: PE bag, 1000 ppb 1-MCP
structure (smiles),measurement,setting,value
"CC1=CC1 [1-MCP, 1-methylcyclopropene]",Crown Mold,"bananas [1]; MAP-3: MAP bag, 300 ppb 1-MCP",1.04
same,Crown Rot,"bananas [1]; MAP-3: MAP bag, 300 ppb 1-MCP",1.18
same,Crown Mold,bananas [1]; [5],1.00
same,Crown Rot,bananas [1]; [5],1.18
same,Crown Mold,"bananas [1]; PE-3-C: PE bag, 300 ppb 1-MCP",1.50
same,Crown Rot,"bananas [1]; PE-3-C: PE bag, 300 ppb 1-MCP",1.72
same,Crown Mold,bananas [1]; [6],1.09
same,Crown Rot,bananas [1]; [6],1.27
same,acceptability of bananas,"bananas [2]; MAP bags, day number 17 after treatment, held at 14° C.",still acceptable
same,onset of sugar spots,"bananas [2]; MAP bags, held in bags at 14° C.",showed a delay in the onset of sugar spots
same,additional time bananas remained acceptable after removal from MAP bags,"bananas [2]; after 17 days at 14° C., stored at approx. 22° C.",three
same,Average color stage,bananas [3]; 1-MCP only (T-bag),4.71
same,Average sugar spot rating,bananas [3]; 1-MCP only (T-bag),3
same,eating experience,bananas [3]; 1-MCP only (T-bag),mediocre
same,pulp,bananas [3]; 1-MCP only (T-bag),soft
same,Average color stage,bananas [3]; MAP (type D-40) and 1-MCP,4.42
same,Average sugar spot rating,bananas [3]; MAP (type D-40) and 1-MCP,1
same,eating experience,bananas [3]; MAP (type D-40) and 1-MCP,excellent
same,pulp,bananas [3]; MAP (type D-40) and 1-MCP,firm
same,Color Stage,"bananas [4]; MAP type D, 1 bananas per bag",6.7
same,Sugar Spots,"bananas [4]; MAP type D, 1 bananas per bag",0.7
same,Color Stage,"bananas [4]; MAP type D, 2 bananas per bag",5.5
same,Sugar Spots,"bananas [4]; MAP type D, 2 bananas per bag",1.0
same,Color Stage,"bananas [4]; MAP type D, 3 bananas per bag",5.5
same,Sugar Spots,"bananas [4]; MAP type D, 3 bananas per bag",0.3
same,Color Stage,"bananas [4]; MAP type D, 4 bananas per bag",5.5
same,Sugar Spots,"bananas [4]; MAP type D, 4 bananas per bag",0.7
same,Color Stage,"bananas [4]; MAP type D, 5 bananas per bag",4.8
same,Sugar Spots,"bananas [4]; MAP type D, 5 bananas per bag",1.3
same,Color Stage,"bananas [4]; MAP type D, 6 bananas per bag",5.2
same,Sugar Spots,"bananas [4]; MAP type D, 6 bananas per bag",0.3
same,Color Stage,"bananas [4]; MAP type D, 7 bananas per bag",4.8
same,Sugar Spots,"bananas [4]; MAP type D, 7 bananas per bag",0.7
same,Color Stage,"bananas [4]; MAP type D, 8 bananas per bag",4.5
same,Sugar Spots,"bananas [4]; MAP type D, 8 bananas per bag",0.0
same,Color Stage,"bananas [4]; MAP type D, 9 bananas per bag",4.5
same,Sugar Spots,"bananas [4]; MAP type D, 9 bananas per bag",0.7
same,Color Stage,"bananas [4]; MAP type D, 10 bananas per bag",4.5
same,Sugar Spots,"bananas [4]; MAP type D, 10 bananas per bag",0.0
same,Color Stage,"bananas [4]; MAP type D, 11 bananas per bag",4.3
same,Sugar Spots,"bananas [4]; MAP type D, 11 bananas per bag",0.0
same,Color Stage,"bananas [4]; MAP type D, 12 bananas per bag",4.5
same,Sugar Spots,"bananas [4]; MAP type D, 12 bananas per bag",0.0
same,Color Stage,"bananas [4]; MAP type M, 1 bananas per bag",6.2
same,Sugar Spots,"bananas [4]; MAP type M, 1 bananas per bag",2.0
same,Color Stage,"bananas [4]; MAP type M, 2 bananas per bag",5.3
same,Sugar Spots,"bananas [4]; MAP type M, 2 bananas per bag",1.7
same,Color Stage,"bananas [4]; MAP type M, 3 bananas per bag",4.8
same,Sugar Spots,"bananas [4]; MAP type M, 3 bananas per bag",2.0
same,Color Stage,"bananas [4]; MAP type M, 4 bananas per bag",5.3
same,Sugar Spots,"bananas [4]; MAP type M, 4 bananas per bag",1.0
same,Color Stage,"bananas [4]; MAP type M, 5 bananas per bag",5.2
same,Sugar Spots,"bananas [4]; MAP type M, 5 bananas per bag",1.0
same,Color Stage,"bananas [4]; MAP type M, 6 bananas per bag",4.8
same,Sugar Spots,"bananas [4]; MAP type M, 6 bananas per bag",1.0
same,Color Stage,"bananas [4]; MAP type M, 7 bananas per bag",5.0
same,Sugar Spots,"bananas [4]; MAP type M, 7 bananas per bag",0.0
same,Color Stage,"bananas [4]; MAP type M, 8 bananas per bag",4.5
same,Sugar Spots,"bananas [4]; MAP type M, 8 bananas per bag",1.0
same,Color Stage,"bananas [4]; MAP type M, 9 bananas per bag",4.5
same,Sugar Spots,"bananas [4]; MAP type M, 9 bananas per bag",0.7
same,Color Stage,"bananas [4]; MAP type M, 10 bananas per bag",5.2
same,Sugar Spots,"bananas [4]; MAP type M, 10 bananas per bag",1.0
same,Color Stage,"bananas [4]; MAP type M, 11 bananas per bag",4.5
same,Sugar Spots,"bananas [4]; MAP type M, 11 bananas per bag",0.0
same,Color Stage,"bananas [4]; MAP type M, 12 bananas per bag",4.5
same,Sugar Spots,"bananas [4]; MAP type M, 12 bananas per bag",0.0
